Laboratory results as given in ChEMBL document CHEMBL3272321, “Preliminary biological studies of certain amino acid analogues” (J Med Chem, 1976).
Activity calls are given as the source filed them. The rule behind the calls is not given here.

Legend:
Mus musculus [1] = assay: Toxicity in albino mouse at 400 mg/kg, ip qd for 7 days measured after 7 days; assay type: organism-based; design: dose 400 mg/kg, route intraperitoneal; details: in vivo, 168 h
[2] = Retardation factor, Rf of the compound by paper chromatographic analysis; assay type: physicochemical
Mus musculus [3] = organism: Mus musculus; assay: Toxicity in albino mouse assessed as tissue damage; assay type: organism-based; details: in vivo
Escherichia coli [4] = assay: Bacteriostatic activity against Escherichia coli 9723 at 5 to 15 X 10^-5 mole/10 ml after 5 to 25 hrs by spectrophotometric analysis; assay type: functional, organism-based
Escherichia coli [5] = assay: Bacteriostatic activity against Escherichia coli 9723 at 5 to 15 X 10^-5 mole/10 ml after 5 to 25 hrs by spectrophotometric analysis in presence of D-methionine; assay type: functional, organism-based
Escherichia coli [6] = assay: Bacteriostatic activity against Escherichia coli 9723 at 5 to 15 X 10^-5 mole/10 ml after 5 to 25 hrs by spectrophotometric analysis in presence of L-methionine; assay type: functional, organism-based
[7] = Drug excretion in albino mouse feces at 2 mg, sc after 24 hrs; assay type: ADME, organism-based; details: faeces, read-out: Drug excretion
[8] = Drug excretion in albino mouse urine at 2 mg, sc after 24 hrs; assay type: ADME, organism-based; details: read-out: Drug excretion
Escherichia coli [9] = assay: Bacteriostatic activity against Escherichia coli 9723 after 8 hrs by spectrophotometric analysis; assay type: functional
Escherichia coli [10] = assay: Bacteriostatic activity against Escherichia coli 9723 after 19 hrs by spectrophotometric analysis; assay type: functional
Escherichia coli [11] = assay: Bacteriostatic activity against Escherichia coli 9723 at 5 to 15 X 10^-5 mole/10 ml after 5 to 25 hrs by spectrophotometric analysis in presence of L-phenylalanine; assay type: functional, organism-based

For `CC(N)(C(=O)O)C1CC1` (stereo not given), the Activity (Mus musculus [1]) was “Non-toxic”, the Rf [2] was 0.56 and the Activity (Mus musculus [3]) was “Non-toxic”.

With `NC(C(=O)O)(C1CC1)C1CC1` the Activity (Mus musculus [1]) was “Non-toxic”, the Rf [2] was 0.64 and the Activity (Mus musculus [3]) was “Non-toxic”.

For `C=CCCC(C)(N)C(=O)O` (stereo not given), the Activity (Escherichia coli [4]) was “Active”, the Activity (Escherichia coli [5]) was “inactive” and the Activity (Escherichia coli [6]) was “inactive”. For the same molecule, the Activity (Mus musculus [1]) was “Non-toxic”, the dose excreted at 24 h [7] was 2.2% and the dose excreted at 24 h [8] was 97.6%. It also gave a GI90 (Escherichia coli [9]) of 0.0013 M, a GI90 (Escherichia coli [10]) of 0.01 M and a Rf [2] of 0.71. For the same molecule, the Activity (Mus musculus [3]) was “Non-toxic”.

For `CC[C@](N)(Cc1ccccc1)C(=O)O`, the Activity (Escherichia coli [4]) was “Active”, the Activity (Escherichia coli [11]) was “inactive” and the Activity (Mus musculus [1]) was “Non-toxic”. The dose excreted at 24 h [7] was 2.1%, the dose excreted at 24 h [8] was 97.9% and the GI90 (Escherichia coli [9]) was 0.0025 M. For the same molecule, the GI90 (Escherichia coli [10]) was 0.005 M, the Rf [2] was 0.77 and the Activity (Mus musculus [3]) was “Non-toxic”.
